We go through 34 molecules from ChEMBL document CHEMBL3091330, “Discovery of 3,4-Dihydropyrimidin-2(1H)-ones As a Novel Class of Potent and Selective A2B Adenosine Receptor Antagonists” (ACS Med Chem Lett, 2013).

Type in all cases: cell-based
The target of test [1] is T1, Adenosine receptor A3 (Homo sapiens) (UniProt P0DMS8).
T1 sequence (whole entry): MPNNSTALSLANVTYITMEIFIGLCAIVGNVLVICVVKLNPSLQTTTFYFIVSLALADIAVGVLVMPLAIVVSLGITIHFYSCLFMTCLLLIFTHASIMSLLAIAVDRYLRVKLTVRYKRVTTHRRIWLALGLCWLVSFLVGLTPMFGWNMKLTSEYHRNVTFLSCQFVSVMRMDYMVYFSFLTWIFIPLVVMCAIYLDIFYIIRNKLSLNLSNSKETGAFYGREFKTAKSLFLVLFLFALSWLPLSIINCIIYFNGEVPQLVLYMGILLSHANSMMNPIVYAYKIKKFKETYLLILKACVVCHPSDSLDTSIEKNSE
Put plainly: Displacement of [3H]NECA from adenosine A3 receptor in human HeLa cells at 10 uM after 180 mins.

For a further test, the target named is T2, Adenosine receptor A2b (Homo sapiens, UniProt P29275).
T2 sequence (P29275 whole entry): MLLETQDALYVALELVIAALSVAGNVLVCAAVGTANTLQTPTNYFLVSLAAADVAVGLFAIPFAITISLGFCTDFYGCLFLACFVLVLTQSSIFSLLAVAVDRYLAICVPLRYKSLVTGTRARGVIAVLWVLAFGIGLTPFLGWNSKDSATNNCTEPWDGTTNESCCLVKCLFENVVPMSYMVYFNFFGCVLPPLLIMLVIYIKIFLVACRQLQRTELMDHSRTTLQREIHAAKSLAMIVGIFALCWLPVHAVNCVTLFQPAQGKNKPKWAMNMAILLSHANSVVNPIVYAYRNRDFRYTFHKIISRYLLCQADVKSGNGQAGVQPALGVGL
Put plainly: Displacement of [3H]DPCPX from human adenosine A2B receptor expressed in HEK293 cells after 30 mins by Scatchard plot analysis.

Test [2] concerns the target T3, Adenosine receptor A2a (Homo sapiens, UniProt P29274). Put plainly: Displacement of [3H]ZM241385 from adenosine A2A receptor in human HeLa cells at 10 uM after 30 mins.
For test [3], the target named is T4, Adenosine receptor A1 (Homo sapiens) (UniProt P30542).
T4 sequence (whole entry): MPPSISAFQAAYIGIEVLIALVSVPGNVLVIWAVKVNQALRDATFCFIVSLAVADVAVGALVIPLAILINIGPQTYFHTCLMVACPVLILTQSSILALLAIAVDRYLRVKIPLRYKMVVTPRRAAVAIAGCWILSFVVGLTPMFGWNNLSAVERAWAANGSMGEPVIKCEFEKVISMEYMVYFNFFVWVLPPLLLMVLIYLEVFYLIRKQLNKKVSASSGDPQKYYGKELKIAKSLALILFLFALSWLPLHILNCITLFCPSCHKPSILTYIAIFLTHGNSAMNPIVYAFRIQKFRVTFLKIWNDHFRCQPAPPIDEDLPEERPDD
Put plainly: Displacement of [3H]DPCPX from human adenosine A1 receptor expressed in CHO cells at 10 uM after 60 mins.

In test [4] the target is T5, Adenosine receptor A2b (Homo sapiens) (UniProt P29275).
T5 sequence (whole entry): T2 sequence (P29275 whole entry)
In words: Displacement of [3H]DPCPX from human from adenosine A2B receptor in HEK293 cells at 10 uM after 30 mins by Scatchard plot analysis.

Test [5] has as its target T3, Adenosine receptor A2a. In words: Displacement of [3H]ZM241385 from adenosine A2A receptor in human HeLa cells after 30 mins.

T3 sequence (P29274 whole entry): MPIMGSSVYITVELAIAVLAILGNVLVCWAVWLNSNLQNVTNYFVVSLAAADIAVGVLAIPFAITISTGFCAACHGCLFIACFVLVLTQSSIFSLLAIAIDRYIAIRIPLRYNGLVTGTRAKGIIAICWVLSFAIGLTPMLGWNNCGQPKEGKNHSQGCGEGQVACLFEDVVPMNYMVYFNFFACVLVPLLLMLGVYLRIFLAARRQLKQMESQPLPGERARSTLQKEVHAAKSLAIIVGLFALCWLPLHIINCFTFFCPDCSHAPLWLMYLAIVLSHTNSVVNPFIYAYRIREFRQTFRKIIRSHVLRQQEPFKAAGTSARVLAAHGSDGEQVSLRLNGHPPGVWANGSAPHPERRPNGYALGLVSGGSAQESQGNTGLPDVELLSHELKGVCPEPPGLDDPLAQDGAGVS

Turning to `CCOC(=O)C1=C(C)N(C)C(=O)NC1c1ccco1` (racemic), the values for the inhibition (in test [1]; at Adenosine receptor A2a [2]; in test [3]) were 25%, 5% and 17%, respectively. The same molecule registered a Ki at Adenosine receptor A2b of 6540 nM.
Take `CC(=O)C1=C(C)NC(=O)NC1c1ccco1` (racemic): the inhibition came to 14% in test [1], 38% in test [4], 21% on Adenosine receptor A2a [2] and 30% in test [3].
Consider `CC1=C(C(=O)OC(C)C)C(c2cccs2)NC(S)=N1` (racemic), for which the results for the inhibition (in test [1]; on Adenosine receptor A2a [2]; in test [3]) were 20%, 15% and 23%, respectively. This molecule had a Ki on Adenosine receptor A2b of 1570 nM.
On to `CCCOC(=O)C1=C(C)NC(=O)NC1c1ccco1` (racemic), for which the inhibition in test [1] is 2%; on Adenosine receptor A2a [2], 55%; in test [3] it was 43%. The same molecule gave a Ki on Adenosine receptor A2b of 206 nM.
For `CC1=C(C(=O)OC(C)(C)C)C(c2ccco2)NC(=O)N1` (racemic), the inhibition in test [1] was 7%; in test [4] it was 44%; on Adenosine receptor A2a [2] it was 7%; in test [3] it was 4%.
In the case of `CC1=C(C(N)=O)C(c2ccco2)NC(=O)N1` (racemic), the inhibition amounted to 2% in test [1], 2% in test [4], 1% on Adenosine receptor A2a [2] and 2% in test [3].
For the molecule `CCOC(=O)C1=C(C)NC(=S)NC1c1ccoc1` (racemic), the inhibition in test [1] turned out to be 15%; at Adenosine receptor A2a [2], 25%; in test [3], 18%. The inhibition constant Ki at Adenosine receptor A2b amounted to 43.1 nM.
Turning to `CCOC(=O)C1=C(C)N(C)C(=O)NC1c1cccs1` (racemic), the inhibition in test [1] came to 6%; in test [4] it was 11%; at Adenosine receptor A2a [2] it was 3%; in test [3], 2%.
Consider `CCCC1=C(C(=O)OCC)C(c2ccco2)NC(=O)N1` (racemic), for which the values for the inhibition in test [1] and in test [3] were 19% and 50%, respectively. Moreover, the Ki on Adenosine receptor A2b came to 256 nM; at Adenosine receptor A2a [5] it was 602 nM.
Regarding `CC1=C(C(=O)OC(C)C)C(c2cccs2)NC(=O)N1C` (racemic), the inhibition in test [1] came out at 18%; in test [4], 28%; on Adenosine receptor A2a [2] it was 24%; in test [3], 22%.
`CCOC(=O)C1=C(C)NC(=O)N(C(C)=O)C1c1ccco1` (racemic): the inhibition in test [1] is 1%; on Adenosine receptor A2a [2] it was 24%; in test [3], 19%. At Adenosine receptor A2b, this molecule returned a Ki of 3110 nM.
Take `CC1=C(C(=O)OC(C)C)C(c2cccs2)NC(=O)N1` (racemic): the inhibition in test [1] was determined as 14%; in test [4] it was 44%; at Adenosine receptor A2a [2], 19%; in test [3], 37%.
Consider `CCOC(=O)C1=C(C)N=C(S)NC1c1cccs1` (racemic), for which the inhibition turned out to be 4% in test [1], 23% on Adenosine receptor A2a [2] and 2% in test [3]. Moreover, at Adenosine receptor A2b, the Ki was determined as 6250 nM.
The like results for `CC1=C(C(=O)OC(C)C)C(c2ccoc2)NC(=S)N1` (racemic) were, in that order, 23%, 33%, 18% and 194 nM.
Turning to `CCOC(=O)C1=C(C)N=C(S)NC1c1ccco1` (racemic), the inhibition amounted to 5% in test [1], 32% on Adenosine receptor A2a [2] and 1% in test [3]. Moreover, the inhibitory constant (Ki) at Adenosine receptor A2b amounted to 608 nM.
For `CC1=C(C(=O)OC(C)C)C(c2ccsc2)NC(=O)N1` (racemic), the inhibition in test [1] was found to be 5%; at Adenosine receptor A2a [2], 25%; in test [3] it was 26%. At Adenosine receptor A2b, this molecule had a Ki of 56.6 nM.
Take `CCOC(=O)C1=C(c2ccccc2)NC(=O)NC1c1ccco1` (racemic): the inhibition in test [1] worked out at 2%; in test [4] it was 28%; on Adenosine receptor A2a [2] it was 17%; in test [3], 3%.
`CC1=C(C(=O)OC(C)C)C(c2ccco2)NC(=O)N1C` (racemic): the inhibition in test [1] came out at 18%; at Adenosine receptor A2a [2] it was 31%; in test [3], 28%. At Adenosine receptor A2b, this molecule yielded a Ki of 1150 nM.
For `CCOC(=O)C1=C(CC)NC(=O)NC1c1ccco1` (racemic) the same measures were 3%, 41%, 29% and 715 nM.
For `CCOC(=O)C1=C(C)N=C(S)NC1c1ccsc1` (racemic) the same measures were 2%, 28%, 23% and 1100 nM.
With `CC1=C(C(=O)OC(C)C)C(c2ccsc2)NC(=S)N1` (racemic), the figures for the inhibition (in test [1]; on Adenosine receptor A2a [2]; in test [3]) were 3%, 20% and 16%, respectively. The molecule also came in with a Ki on Adenosine receptor A2b of 416 nM.
The like results for `COC(=O)C1=C(C)NC(=O)NC1c1ccco1` (racemic) were, in that order, 13%, 25%, 34% and 2160 nM.
For `CCOC(=O)c1c(-c2ccco2)nc(=O)[nH]c1C` the same measures were 15%, 11%, 6% and 3430 nM.
Regarding `CC1=C(C(=O)OC(C)C)C(c2ccsc2)NC(=O)N1C` (racemic), the inhibition in test [1] stood at 14%; on Adenosine receptor A2a [2], 20%; in test [3], 33%. In addition, the affinity at Adenosine receptor A2b, expressed as Ki, was 1810 nM.
With `CC1=C(C(=O)OC(C)C)C(c2ccoc2)NC(=O)N1C` (racemic), the inhibition came to 1% in test [1], 35% in test [4], 2% on Adenosine receptor A2a [2] and 23% in test [3].
For `CC1=C(C(=O)Nc2ccccc2)C(c2ccco2)NC(=O)N1` (racemic) the same measures were 5%, 31%, 7% and 24%.
As to `CCOC(=O)C1=C(C(F)(F)F)NC(=O)NC1c1ccco1` (racemic), the inhibition in test [1] was determined as 2%; in test [4] it was 2%; on Adenosine receptor A2a [2], 32%; in test [3], 15%.
Turning to `CCOC(=O)C1=C(C)N(C)C(=O)NC1c1ccoc1` (racemic), the values for the inhibition (in test [1]; at Adenosine receptor A2a [2]; in test [3]) were 1%, 24% and 17%, respectively. At Adenosine receptor A2b, the Ki was 4260 nM.
As to `CCOC(=O)C1=C(C)NC(=O)NC1c1cccs1` (racemic), the inhibition stood at 2% in test [1], 39% in test [4], 33% on Adenosine receptor A2a [2] and 3% in test [3].
On to `CCOC(=O)C1=C(C)NC(=O)NC1c1ccco1` (racemic), for which the inhibition in test [1] is 2%; at Adenosine receptor A2a [2] it was 31%; in test [3] it was 15%. The same molecule yielded a Ki at Adenosine receptor A2b of 586 nM.
With `CC1=C(C(=O)OC(C)C)C(c2ccco2)NC(=O)N1` (racemic), the inhibition in test [1] turned out to be 4%; on Adenosine receptor A2a [2], 23%; in test [3] it was 18%. The same molecule came in with a Ki on Adenosine receptor A2b of 40.8 nM.
Regarding `CCOC(=O)C1=C(C)NC(=O)NC1c1ccoc1` (racemic), the values for the inhibition (in test [1]; at Adenosine receptor A2a [2]; in test [3]) were 1%, 24% and 21%, respectively. Also, at Adenosine receptor A2b, the Ki turned out to be 39.6 nM.
With `CC1=C(C(=O)OC(C)C)C(c2ccoc2)NC(=O)N1` (racemic), the inhibition in test [1] worked out at 3%; at Adenosine receptor A2a [2], 26%; in test [3] it was 25%. The affinity at Adenosine receptor A2b corresponds to a Ki of 1490 nM.
The like results for `CCOC(=O)C1=C(C)N(C)C(=O)NC1c1ccsc1` (racemic) were, in that order, 3%, 24%, 30% and 2970 nM.
